Experimental data published in the supplement of paper PMC9663587.

Each cell line was assayed with CCOc1cc2ncc(C#N)c(Nc3ccc(OCc4ccccn4)c(Cl)c3)c2cc1NC(=O)/C=C/CN(C)C [Neratinib/HKI272] (assay: GR value, 72 h; higher = faster growth (1 = untreated, <0 = killing)). Conditions: 0.0003162 µM.
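For GR value, 72 h in this document: breast cancer and non-malignant breast epithelial lines, nine half-log doses, viable cells counted by Hoechst and LIVE/DEAD dye imaging versus time-zero plates and DMSO controls.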
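For increase in dead-cell fraction, 72 h in this document: breast cancer cell lines in 384-well plates, stained with Hoechst plus LIVE/DEAD far red dye and imaged, cells above an LDR intensity threshold counted dead, Hoechst-negative corpses included.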

| Cell Line | GR value [GR] |
| --- | --- |
| MDAMB453 | 0.988 |
| MDAMB468 | 0.947 |
| MGH312 | 0.953 |
| PDX1258 | 1.07 |
| PDX1328 | 1.02 |

Same assay, conditions: 0.001 µM

| Cell Line | GR value [GR] |
| --- | --- |
| MDAMB453 | 0.937 |
| MDAMB468 | 0.97 |
| MGH312 | 1.02 |
| PDX1258 | 1.02 |
| PDX1328 | 1.02 |

Same assay, conditions: 0.003162 µM

| Cell Line | GR value [GR] |
| --- | --- |
| MDAMB453 | 0.825 |
| MDAMB468 | 0.983 |
| MGH312 | 0.997 |
| PDX1258 | 1.1 |
| PDX1328 | 1.01 |

Same assay, conditions: 0.01 µM

| Cell Line | GR value [GR] |
| --- | --- |
| MDAMB453 | 0.596 |
| MDAMB468 | 0.969 |
| MGH312 | 0.787 |
| PDX1258 | 1 |
| PDX1328 | 0.898 |

Same assay, conditions: 0.03162 µM

| Cell Line | GR value [GR] |
| --- | --- |
| MDAMB453 | 0.44 |
| MDAMB468 | 0.838 |
| MGH312 | 0.606 |
| PDX1258 | 0.938 |
| PDX1328 | 0.762 |

Same assay, conditions: 0.1 µM

| Cell Line | GR value [GR] |
| --- | --- |
| MDAMB453 | 0.366 |
| MDAMB468 | 0.56 |
| MGH312 | 0.489 |
| PDX1258 | 0.772 |
| PDX1328 | 0.675 |

Same assay, conditions: 0.3162 µM

| Cell Line | GR value [GR] |
| --- | --- |
| MDAMB453 | 0.139 |
| MDAMB468 | 0.257 |
| MGH312 | 0.502 |
| PDX1258 | 0.749 |
| PDX1328 | 0.537 |

Same assay, conditions: 1 µM

| Cell Line | GR value [GR] |
| --- | --- |
| MDAMB453 | -0.0602 |
| MDAMB468 | -0.0811 |
| MGH312 | 0.238 |
| PDX1258 | 0.548 |
| PDX1328 | 0.223 |

Same assay, conditions: 3.162 µM

| Cell Line | GR value [GR] |
| --- | --- |
| MDAMB453 | -0.339 |
| MDAMB468 | -0.395 |
| MGH312 | -0.252 |
| PDX1258 | 0.195 |
| PDX1328 | 0.0191 |

These cell lines were tested with CN(C)C/C=C/C(=O)Nc1ccc(C(=O)Nc2cccc(Nc3ncc(Cl)c(-c4c[nH]c5ccccc45)n3)c2)cc1 [THZ1] in the same assay as above. Conditions: 0.0001 µM.

| Cell Line | GR value [GR] |
| --- | --- |
| MDAMB453 | 1 |
| MDAMB468 | 1 |
| MGH312 | 1.22 |
| PDX1258 | 1.11 |
| PDX1328 | 0.984 |

Same assay, conditions: 0.0003162 µM

| Cell Line | GR value [GR] |
| --- | --- |
| MDAMB453 | 0.935 |
| MDAMB468 | 1.07 |
| MGH312 | 0.923 |
| PDX1258 | 1.16 |
| PDX1328 | 1.06 |

Same assay, conditions: 0.001 µM

| Cell Line | GR value [GR] |
| --- | --- |
| MDAMB453 | 1.04 |
| MDAMB468 | 1 |
| MGH312 | 0.962 |
| PDX1258 | 1.17 |
| PDX1328 | 1.11 |

Same assay, conditions: 0.003162 µM

| Cell Line | GR value [GR] |
| --- | --- |
| MDAMB453 | 0.716 |
| MDAMB468 | 0.92 |
| MGH312 | 0.662 |
| PDX1258 | 0.923 |
| PDX1328 | 0.868 |

Same assay, conditions: 0.01 µM

| Cell Line | GR value [GR] |
| --- | --- |
| MDAMB453 | 0.61 |
| MDAMB468 | 0.76 |
| MGH312 | 0.287 |
| PDX1258 | 0.918 |
| PDX1328 | 0.532 |

Same assay, conditions: 0.03162 µM

| Cell Line | GR value [GR] |
| --- | --- |
| MDAMB453 | 0.0146 |
| MDAMB468 | 0.375 |
| MGH312 | -0.892 |
| PDX1258 | -0.295 |
| PDX1328 | -0.0495 |

Same assay, conditions: 0.1 µM

| Cell Line | GR value [GR] |
| --- | --- |
| MDAMB453 | -0.0991 |
| MDAMB468 | -0.131 |
| MGH312 | -0.905 |
| PDX1258 | -0.51 |
| PDX1328 | -0.397 |

Same assay, conditions: 0.3162 µM

| Cell Line | GR value [GR] |
| --- | --- |
| MDAMB453 | -0.106 |
| MDAMB468 | -0.226 |
| MGH312 | -0.92 |
| PDX1258 | -0.509 |
| PDX1328 | -0.435 |

Same assay, conditions: 1 µM

| Cell Line | GR value [GR] |
| --- | --- |
| MDAMB453 | -0.277 |
| MDAMB468 | -0.435 |
| MGH312 | -0.934 |
| PDX1258 | -0.665 |
| PDX1328 | -0.711 |

Each cell line was assayed with CC(=O)c1c(C)c2cnc(Nc3ccc(N4CCNCC4)cn3)nc2n(C2CCCC2)c1=O (assay: increase in dead-cell fraction, 72 h; higher = more death). Conditions: 0.0003162 µM.

| Cell Line | increase in dead-cell fraction |
| --- | --- |
| MDAMB453 | 0.0265 |
| MDAMB468 | 0.0165 |
| MGH312 | -0.0083 |
| PDX1258 | 0.0009 |
| PDX1328 | -0.0028 |

Same assay, conditions: 0.001 µM

| Cell Line | increase in dead-cell fraction |
| --- | --- |
| MDAMB453 | 0.0374 |
| MDAMB468 | 0.0114 |
| MGH312 | -0.0121 |
| PDX1258 | -0.0052 |
| PDX1328 | 0.0004 |

Same assay, conditions: 0.003162 µM

| Cell Line | increase in dead-cell fraction |
| --- | --- |
| MDAMB453 | 0.016 |
| MDAMB468 | 0.0024 |
| MGH312 | 0.0011 |
| PDX1258 | -0.0004 |
| PDX1328 | -0.0023 |

Same assay, conditions: 0.01 µM

| Cell Line | increase in dead-cell fraction |
| --- | --- |
| MDAMB453 | 0.0502 |
| MDAMB468 | -0.0003 |
| MGH312 | -0.0042 |
| PDX1258 | 0.0095 |
| PDX1328 | 0.0019 |

Same assay, conditions: 0.03162 µM

| Cell Line | increase in dead-cell fraction |
| --- | --- |
| MDAMB453 | 0.0578 |
| MDAMB468 | 0.0031 |
| MGH312 | 0.001 |
| PDX1258 | 0.0043 |
| PDX1328 | -0.005 |

Same assay, conditions: 0.1 µM

| Cell Line | increase in dead-cell fraction |
| --- | --- |
| MDAMB453 | 0.115 |
| MDAMB468 | -0.006 |
| MGH312 | -0.0039 |
| PDX1258 | 0.0062 |
| PDX1328 | 0.0014 |

Same assay, conditions: 0.3162 µM

| Cell Line | increase in dead-cell fraction |
| --- | --- |
| MDAMB453 | 0.124 |
| MDAMB468 | -0.0071 |
| MGH312 | 0.003 |
| PDX1258 | -0.0028 |
| PDX1328 | -0.0028 |

Same assay, conditions: 1 µM

| Cell Line | increase in dead-cell fraction |
| --- | --- |
| MDAMB453 | 0.123 |
| MDAMB468 | -0.001 |
| MGH312 | 0.0034 |
| PDX1258 | -0.0014 |
| PDX1328 | 0.0026 |

Same assay, conditions: 3.162 µM

| Cell Line | increase in dead-cell fraction |
| --- | --- |
| MDAMB453 | 0.117 |
| MDAMB468 | -0.0077 |
| MGH312 | 0.0037 |
| PDX1258 | 0.0061 |
| PDX1328 | 0.0055 |
